Reference: PubChem BioAssay (NCI)
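Growth conditions: 96-well plates. Treatment: test compound, 48 hours, 5 concentrations. Analysis: linear interpolation between bracketing concentrations; unreached endpoints set to highest concentration. GI50: concentration for 50% inhibition of growth. Definition used: TGI = concentration required for complete inhibition of growth.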

Legend:
Assay in all cases: growth of human tumour cells (NCI), 48 h
[1] = system: 786-0 renal
[2] = system: A498 renal
[3] = system: A549 NSCLC
[4] = system: ACHN renal
[5] = system: BT-549 breast
[6] = system: CAKI-1 renal
[7] = system: CCRF-CEM leukemia
[8] = system: COLO 205 colon
[9] = system: DU-145 prostate
[10] = system: EKVX NSCLC
[11] = system: HCC-2998 colon
[12] = system: HCT-116 colon
[13] = system: HCT-15 colon
[14] = system: HL-60(TB) leukemia
[15] = system: HOP-62 NSCLC
[16] = system: HOP-92 NSCLC
[17] = system: HS 578T breast
[18] = system: HT29 colon
[19] = system: IGROV1 ovarian
[20] = system: K-562 leukemia
[21] = system: KM12 colon
[22] = system: LOX IMVI melanoma
[23] = system: M14 melanoma
[24] = system: MALME-3M melanoma
[25] = system: MCF7 breast
[26] = system: MDA-MB-231 breast
[27] = system: MDA-MB-435
[28] = system: MDA-MB-468 breast
[29] = system: MOLT-4 leukemia
[30] = system: NCI-H226 lung
[31] = system: NCI-H23 lung
[32] = system: NCI-H460 lung
[33] = system: NCI-H522 lung
[34] = system: NCI/ADR-RES ovarian
[35] = system: OVCAR-3 ovarian
[36] = system: OVCAR-4 ovarian
[37] = system: OVCAR-5 ovarian
[38] = system: OVCAR-8 ovarian
[39] = system: PC-3 prostate
[40] = system: RPMI-8226 leukemia
[41] = system: RXF 393 renal
[42] = system: SF-268 CNS
[43] = system: SF-295 CNS
[44] = system: SF-539 CNS
[45] = system: SK-MEL-2 melanoma
[46] = system: SK-MEL-28 melanoma
[47] = system: SK-MEL-5 melanoma
[48] = system: SK-OV-3 ovarian
[49] = system: SN12C renal
[50] = system: SNB-19 CNS
[51] = system: SNB-75 CNS
[52] = system: SR leukemia
[53] = system: SW-620 colon
[54] = system: T-47D breast
[55] = system: TK-10 renal
[56] = system: U251 CNS
[57] = system: UACC-257 melanoma
[58] = system: UACC-62 melanoma
[59] = system: UO-31 renal

**Q.** Which GI50 [1] does the source give for `O=C(CNc1nc(-c2ccccc2)cs1)Nc1cccc(Cl)c1` here?
**A.** 13.1 µM

**Q.** And the TGI [1]?
**A.** 38.3 µM

**Q.** And the GI50 [2]?
**A.** 11.5 µM

**Q.** And the TGI [2]?
**A.** 33.5 µM

**Q.** And the GI50 [3]?
**A.** 9.22 µM

**Q.** What about the TGI [3] of the same molecule?
**A.** 62.4 µM

**Q.** What about the GI50 [4] of the same molecule?
**A.** 6.57 µM

**Q.** What about the TGI [4] of the same molecule?
**A.** 19.8 µM

**Q.** What about the GI50 [5] of the same molecule?
**A.** 4.82 µM

**Q.** What about the TGI [5] of the same molecule?
**A.** 19 µM

**Q.** And the GI50 [6]?
**A.** 3.13 µM

**Q.** What about the TGI [6] of the same molecule?
**A.** 42.9 µM

**Q.** And the GI50 [7]?
**A.** 3.76 µM

**Q.** What about the TGI [7] of the same molecule?
**A.** > 100 µM

**Q.** What about the GI50 [8] of the same molecule?
**A.** 15.6 µM

**Q.** What about the TGI [8] of the same molecule?
**A.** 36.5 µM

**Q.** What about the GI50 [9] of the same molecule?
**A.** 15.2 µM

**Q.** And the TGI [9]?
**A.** 37.2 µM

**Q.** What about the GI50 [10] of the same molecule?
**A.** 3.59 µM

**Q.** What about the TGI [10] of the same molecule?
**A.** 15.3 µM

**Q.** And the GI50 [11]?
**A.** 11.2 µM

**Q.** And the TGI [11]?
**A.** 23.2 µM

**Q.** What about the GI50 [12] of the same molecule?
**A.** 4.99 µM

**Q.** And the TGI [12]?
**A.** 34.1 µM

**Q.** What about the GI50 [13] of the same molecule?
**A.** 4.49 µM

**Q.** And the TGI [13]?
**A.** 16.1 µM

**Q.** What about the GI50 [14] of the same molecule?
**A.** 3.53 µM

**Q.** What about the TGI [14] of the same molecule?
**A.** 23.1 µM

**Q.** And the GI50 [15]?
**A.** 12.6 µM

**Q.** And the TGI [15]?
**A.** 36 µM

**Q.** What about the GI50 [16] of the same molecule?
**A.** 2.37 µM

**Q.** What about the TGI [16] of the same molecule?
**A.** 15.1 µM

**Q.** What about the GI50 [17] of the same molecule?
**A.** 7.94 µM

**Q.** And the TGI [17]?
**A.** > 100 µM

**Q.** What about the GI50 [18] of the same molecule?
**A.** 10.1 µM

**Q.** And the TGI [18]?
**A.** 24 µM

**Q.** What about the GI50 [19] of the same molecule?
**A.** 5.27 µM

**Q.** What about the TGI [19] of the same molecule?
**A.** 21.5 µM

**Q.** And the GI50 [20]?
**A.** 3.84 µM

**Q.** What about the TGI [20] of the same molecule?
**A.** 26 µM

**Q.** And the GI50 [21]?
**A.** 6.33 µM

**Q.** What about the TGI [21] of the same molecule?
**A.** 22.5 µM

**Q.** And the GI50 [22]?
**A.** 3.31 µM

**Q.** And the TGI [22]?
**A.** 16.4 µM

**Q.** What about the GI50 [23] of the same molecule?
**A.** 10.4 µM

**Q.** And the TGI [23]?
**A.** 42.3 µM

**Q.** What about the GI50 [24] of the same molecule?
**A.** 15 µM

**Q.** And the TGI [24]?
**A.** 28.3 µM

**Q.** And the GI50 [25]?
**A.** 5.42 µM

**Q.** And the TGI [25]?
**A.** 18.3 µM

**Q.** What about the GI50 [26] of the same molecule?
**A.** 4.03 µM

**Q.** What about the TGI [26] of the same molecule?
**A.** 17.8 µM

**Q.** And the GI50 [27]?
**A.** 12.5 µM

**Q.** What about the TGI [27] of the same molecule?
**A.** 33.5 µM

**Q.** What about the GI50 [28] of the same molecule?
**A.** 4.01 µM

**Q.** And the TGI [28]?
**A.** 13.5 µM

**Q.** And the GI50 [29]?
**A.** 3.22 µM

**Q.** And the TGI [29]?
**A.** 15.9 µM

**Q.** And the GI50 [30]?
**A.** 10.1 µM

**Q.** What about the TGI [30] of the same molecule?
**A.** 45.4 µM

**Q.** What about the GI50 [31] of the same molecule?
**A.** 9.24 µM

**Q.** And the TGI [31]?
**A.** 22.8 µM

**Q.** What about the GI50 [32] of the same molecule?
**A.** 10.1 µM

**Q.** And the TGI [32]?
**A.** 28.6 µM

**Q.** What about the GI50 [33] of the same molecule?
**A.** 4.01 µM

**Q.** And the TGI [33]?
**A.** 16.1 µM

**Q.** What about the GI50 [34] of the same molecule?
**A.** 6.39 µM

**Q.** And the TGI [34]?
**A.** 45.3 µM

**Q.** What about the GI50 [35] of the same molecule?
**A.** 7.14 µM

**Q.** What about the TGI [35] of the same molecule?
**A.** 21.5 µM

**Q.** And the GI50 [36]?
**A.** 6.4 µM

**Q.** What about the TGI [36] of the same molecule?
**A.** 20.9 µM

**Q.** What about the GI50 [37] of the same molecule?
**A.** 13 µM

**Q.** What about the TGI [37] of the same molecule?
**A.** 25.7 µM

**Q.** And the GI50 [38]?
**A.** 7.2 µM

**Q.** What about the TGI [38] of the same molecule?
**A.** 74.6 µM

**Q.** What about the GI50 [39] of the same molecule?
**A.** 2.86 µM

**Q.** And the TGI [39]?
**A.** 37.6 µM

**Q.** And the GI50 [40]?
**A.** 4.61 µM

**Q.** And the TGI [40]?
**A.** > 100 µM

**Q.** And the GI50 [41]?
**A.** 5.39 µM

**Q.** What about the TGI [41] of the same molecule?
**A.** 18.4 µM

**Q.** What about the GI50 [42] of the same molecule?
**A.** 7.45 µM

**Q.** And the TGI [42]?
**A.** 52.3 µM

**Q.** And the GI50 [43]?
**A.** 5.13 µM

**Q.** What about the TGI [43] of the same molecule?
**A.** 18.1 µM

**Q.** What about the GI50 [44] of the same molecule?
**A.** 11.2 µM

**Q.** And the TGI [44]?
**A.** 23.3 µM

**Q.** And the GI50 [45]?
**A.** 11.8 µM

**Q.** What about the TGI [45] of the same molecule?
**A.** 26 µM

**Q.** And the GI50 [46]?
**A.** 13 µM

**Q.** And the TGI [46]?
**A.** 25.9 µM

**Q.** And the GI50 [47]?
**A.** 7.04 µM

**Q.** What about the TGI [47] of the same molecule?
**A.** 19.8 µM

**Q.** And the GI50 [48]?
**A.** 14.1 µM

**Q.** What about the TGI [48] of the same molecule?
**A.** 44.9 µM

**Q.** What about the GI50 [49] of the same molecule?
**A.** 6.3 µM

**Q.** What about the TGI [49] of the same molecule?
**A.** 20.7 µM

**Q.** What about the GI50 [50] of the same molecule?
**A.** 11 µM

**Q.** And the TGI [50]?
**A.** 28 µM

**Q.** And the GI50 [51]?
**A.** 3.22 µM

**Q.** And the TGI [51]?
**A.** 19.7 µM

**Q.** What about the GI50 [52] of the same molecule?
**A.** 3.94 µM

**Q.** What about the TGI [52] of the same molecule?
**A.** > 100 µM

**Q.** What about the GI50 [53] of the same molecule?
**A.** 12.1 µM

**Q.** What about the TGI [53] of the same molecule?
**A.** 30.3 µM

**Q.** What about the GI50 [54] of the same molecule?
**A.** 6.04 µM

**Q.** And the TGI [54]?
**A.** 22.6 µM

**Q.** What about the GI50 [55] of the same molecule?
**A.** 14.9 µM

**Q.** What about the TGI [55] of the same molecule?
**A.** 29.7 µM

**Q.** What about the GI50 [56] of the same molecule?
**A.** 5.15 µM

**Q.** And the TGI [56]?
**A.** 19.5 µM

**Q.** What about the GI50 [57] of the same molecule?
**A.** 13 µM

**Q.** What about the TGI [57] of the same molecule?
**A.** 26.9 µM

**Q.** And the GI50 [58]?
**A.** 3.33 µM

**Q.** What about the TGI [58] of the same molecule?
**A.** 16.6 µM

**Q.** What about the GI50 [59] of the same molecule?
**A.** 2.41 µM

**Q.** What about the TGI [59] of the same molecule?
**A.** 14.8 µM
